Data taken from patent US20020103131A1, “Prevention of diabetes by administration of GnRH antagonists” (priority 2001, published 2002).
Entries after “also recorded” stand apart in the source; their conditions may differ.

Columns and labels:
Format in all cases: in vivo
gonadectomized NOD mice = experiment: Serum total immunoglobulin G concentrations (single radial immunodiffusion) in gonadectomized NOD mice; conditions: 100 μg subcutaneously six times weekly, 8 weeks of treatment, compared to vehicle / sham operated, FIG. 1
From the text: (§1) The well-characterized NOD mice were used throughout the study. Male and female mice were purchased from the Jackson Laboratory (Bar Harbor, Me.). These mice are art-recognized animal models used in diabetes research. (Makino et al., (1980) Breeding of a Non-obese Diabetic Strain of Mice. Exp Anim, 29, 1-13; Miyazaki, A. T., et al, (1985) Predominance of T Lymphocytes in Pancreatic Islets and Spleen in Prediabetic Non-obese Diabetic (Nod) Mice: a Longitudinal Study. Clin Exp immunol, 60, 622-630)
(§2) Both intact and gonadectomized mice (GDX) were used. […] To compare the effects of GnRH agonists and antagonists, gonadectomized animals were randomized at 14 to 18 days of age and begun immediately in one of the following main treatment groups: GnRH agonist; Antide; vehicle. One group of gonadectomized males was treated with Nal-Glu, as an additional control. […]
(§3) Total immunoglobulin G concentrations were measured by single radial immunodiffusion assay using immunodiffusion plates containing monospecific antiserum for IgG (ICN Biomedicals, Inc., Costa Mesa, Calif.). […] Glycosuria was scored by comparison to reference standards on a scale of 0 to 4 as follows: negative=0; 30 mg/dL=1; 100 mg/dL=2; 300 mg/dL=3;>1000 mg/dL=4.
(§4) Serum immunoglobulin measurements were compared by two-tailed Student's paired t-tests. Percentages of mice remaining diabetes-free was assessed by Mantel-Haenszel methodology. […]

[1] = system: gonadectomized male NOD mice; experiment: Incidence and onset of diabetes in gonadectomized male NOD mice; conditions: 100 μg subcutaneously six times weekly
From the text: as §1, §2, §3, §4

NOD mice = experiment: Serum prolactin by radioimmunoassay in treated NOD mice; conditions: NOD mice under agonist or antagonist treatment
Protocol: Both intact and gonadectomized mice (GDX) were used. […] To compare the effects of GnRH agonists and antagonists, gonadectomized animals were randomized at 14 to 18 days of age and begun immediately in one of the following main treatment groups: GnRH agonist; Antide; vehicle. One group of gonadectomized males was treated with Nal-Glu, as an additional control.
GnRH (native decapeptide) was purchased from Bachem (Bubendorf, Switzerland). GnRH antagonist Antide (Acetyl-β-[2-Naphthyl]-D-Ala-D-p-Chloro-Phe-β-[3-Pyridyl]-D-Ala-Ser-Nε-]-Lys-Nε-[Nicotinoyl]-D-Lys-Leu-Nε-[Isopropyl]-Lys-Pro-D-Ala-NH2) was supplied by Contraceptive Development Branch (NICHHD) of the National Institutes of Health and Ares-Serono (Randolph, Mass.). A second GnRH antagonist, Nal-Glu (acetyl-D2Nal1, D4ClPhe2, D3Pal3, Arg5, Dglu6(AA), DAla10) was supplied by NICHHD and was used on a subset of mice. All references to GnRH agonist refer to the native decapeptide. Animals were injected subcutaneously in the nape of the neck six times weekly, in the a.m., with 100 μg of GnRH or GnRH antagonist in 100 μl of vehicle consisting of 50% propylene glycol and 50% double distilled water. […]
Serum testosterone concentrations were measured by RIA using a commercial kit (Coat-A-Count, Diagnostic Products Corporation, Los Angeles, Calif.). Serum LH and prolactin were measured by radioimmunoassay (RIA) using previously described methods. […]

## GnRH agonist: GnRH (native decapeptide) purchased from Bachem; all references to GnRH agonist refer to the native decapeptide (QHWSYGLRPG; Gonadoliberin-1; UniProt P01148 24-33, looked up)
Gonadectomized NOD mice
  Serum IgG concentrations: further increased IgG levels compared to vehicle; also recorded: reciprocal effects
[1]; gonadectomized NOD mice
  Timing of onset of diabetes: accelerated the timing of onset of diabetes; also recorded: reciprocal effects
[1]; gonadectomized male NOD mice, compared to vehicle, FIG. 2
  Incidence of diabetes: significantly increased the incidence
NOD mice
  Serum prolactin levels: neither agonist nor antagonist treatment altered serum prolactin levels
